Source: US20200376291A1, “PHOTOBIOMODULATION THERAPY TO DELAY DYSTROPHY PROGRESSION” (Multi Radiance Medical, priority 2017, published 2020)

How the values were obtained:
Type in all cases: in vivo
dystrophin = assay: Dystrophin in tibialis anterior muscle of mdx mice by immunohistochemistry; conditions: treated for 14 weeks from 6 weeks of age, prednisone 1.5 mg/kg per day, ibuprofen 25 mg/kg per day, PBMT 3 times a week, FIG. 18
Method: Mice were randomly divided into 7 different experimental groups: Wild Type (WT), Placebo-control (mdx mice), Prednisone (mdx mice), NSAID (mdx mice), […], and PBMT+NSAID (mdx mice). Prednisone (glucocorticoid) treatment was administered to animals daily with a dose of 1.5 mg/kg per day; NSAID treatment with ibuprofen was also administered to animals daily with a dose of 25 mg/kg per day. PBMT was performed employing a cluster probe (Multi Radiance Medical, Solon, Ohio) with 9 diodes (1 super-pulsed laser diode (905 nm), four LED diodes (875 nm), and 4 LED diodes (650 nm). PBMT was applied 3 times a week with direct contact to the animal's skin on hindlimb at a single point (tibialis anterior muscle—bilaterally). For combined treatments, each modality was applied as described previously. All treatments were performed during 14 weeks and started with animals at 6 weeks of age. The analysis consisted of muscle morphology, dystrophin through itntnunohistochetnistry and functional performance.

mdx mice [1] = assay: Skeletal muscle tissue morphology (histological sections, HE) in mdx mice; conditions: treated for 14 weeks from 6 weeks of age, tibialis anterior muscle, FIGS. 13-17
Method: The tibialis anterior muscles of the animal's hind paw were collected and stored in 10% buffered formalin for histological processing; then, hematoxylin and eosin staining was performed in a routine method. Slides were photographed, and the morphology of the skeletal striated muscle fibers was analyzed (Eclipse E-200; Nikon, Tokyo, Japan). Images of all groups were obtained using the 400x magnification. The images were presented with a similar photographic pattern.
(§1) Mice were randomly divided into 7 different experimental groups: Wild Type (WT), Placebo-control (mdx mice), Prednisone (mdx mice), NSAID (mdx mice), […], and PBMT+NSAID (mdx mice). Prednisone (glucocorticoid) treatment was administered to animals daily with a dose of 1.5 mg/kg per day; NSAID treatment with ibuprofen was also administered to animals daily with a dose of 25 mg/kg per day. […]

mdx mice [2] = assay: Functional performance assessment in mdx mice; conditions: treated for 14 weeks from 6 weeks of age, FIG. 19
Method: The PBMT was analyzed using a functional performance evaluation protocol. The functional performance evaluation protocol included the animal climbing stairs with the following dimensions (1×0.09 m, distance between the steps of 0.5 cm and)80° using the animal's body weight (the protocol began with the animal's familiarization, in two sessions with a 24-h interval between the sessions). The aim of the sessions was to teach the mouse to move up the steps and consisted of three repetitions to the top, with a 60 s interval to rest. If necessary, a clamp stimulus for the animal to start moving was applied. After this familiarization, the assessments were performed before the treatments begin and 24-h after the last treatment, in order to evaluate how many times each mouse was able to climb up the stairs until the animal came to fatigue. Fatigue was identified when the animal could no longer perform the activity.
as §1

SMILES | dystrophin compared to the placebo-control group (dystrophin) | morphological aspects of skeletal muscle (mdx mice [1]) | muscular function compared to the placebo-control group (mdx mice [2])
CC(C)Cc1ccc(C(C)C(=O)O)cc1 (stereo not shown) [NSAID, ibuprofen] | no significant increase in dystrophin | – | –
C[C@]12C=CC(=O)C=C1CC[C@@H]1[C@@H]2C(=O)C[C@@]2(C)[C@H]1CC[C@]2(O)C(=O)CO [Prednisone] | increased dystrophin | improvement in the morphological aspects of skeletal muscle | improved muscular function
